Read-outs that look alike come from different tables or passages of the source.
Key:
Format in all cases: cell-based
[1] = test system: HL-60 (human promyelocytic leukemia cells); assay: MTT inhibition of tumor cell growth, HL-60; conditions: Homo sapiens
Method: (§1) 1. Inoculating cells: the culture medium DMEM or RMPI1640 containing 10% fetal bovine serum was used to prepare a single cell suspension, and the cell suspension was inoculated to a 96-well plate at 5000-10000 cells per well (100 μl for each well); Adherent cells were inoculated and cultured for 12 h in advance. HL-60 (human promyelocytic leukemia cells), SMMC-7721 (human hepatoma cells), A-549 (Human lung adenocarcinoma cells), MCF-7 (human breast cancer cells), SW-480 (human colon cancer cells) were purchased from the Cell Bank of the Chinese Academy of Sciences, Shanghai.
(§2) 2. The solution of the compound to be tested (40 μM for primary screening; 5 concentrations were set for gradient re-screening for the compounds which achieve about 50% inhibition of tumor cell growth at 40 μM) was added, the final volume of each well was 200 μl, and triplicate wells were set for each test.
(§3) 3. Coloration: After culturing at 37° C. for 48 h, MTT solution (20 μl) was added to each well. After incubation for another 4 h, the culture was stopped. The supernatant in each well was pipetted and discarded, and 200 μl SDS solution (10%) was added to each well. Incubation was performed overnight (at 37° C.), to completely dissolve the crystal.
(§4) 4. Colorimetric assay: ELISA Reader (Bio-Rad 680) was used to obtain the light absorption for each well at a wavelength of 595 nm, the results were recorded. A cell growth curve was plotted with the concentration as abscissa and the cell survival percentage as ordinate. The two-point method (Reed and Muench method) was used to calculate the IC50 of the compound.

[2] = test system: Wnt signaling pathway (Top-Flash reporter gene); assay: Top-Flash Wnt reporter gene assay in HEK293T cells with Wnt3a conditioned medium; conditions: Homo sapiens, HEK-293T, 6 h
Method: HEK293T cells were cultured in DMEM containing 10% fetal bovine serum (Invitrogen) at 37° C., 5% CO2. The cells were passaged every other day. The density was retained at 70˜80% during passage. L cell line (CRL-2647, purchased from the gene bank of ATCC, the US) and the control cell line (CRL-2648, purchased from ATCC, US), which stably secreted mouse Wnt3a protein, were cultured in DMEM containing 50 ug/ml G418 and 10% fetal bovine serum, at 37° C., 5% CO2. When the cells grew to a density of about 70%, the medium was replaced with DMEM containing 10% fetal bovine serum. After continuous culture for 4 days, the culture was collected and centrifuged, and the supernatant was kept so that the Wnt conditioned medium was obtained. After titration assay, the conditioned medium was quick-frozen in liquid nitrogen, and placed at −80° C. for long-term storage, so that the titer was kept unchanged.
The cells were seeded to a 48-well plate at a density of […] cells per well, and transfected 20 h later. The reagents for plasmid transfection were calculated based on the amount in each well of the 48-well plate as following: the total amount of plasmid was 125 ng/well; the plasmid was first added to a serum-free medium (25 μL/well) and mixed well; PLUS reagent (Invitrogen) was then added in an amount of 0.5 μL/well and mixed well, then stood for 15 min; Lipofectamine (Invitrogen) liposome was added in an amount of 0.5 μL/well to serum-free DMEM medium (25 μL/well), and then mixed with the solution containing the plasmid and the PLUS, and stood for 15 min. The cells were cultured in serum-free DMEM medium (100 μL/well), and the final mixture of plasmid, PLUS and Lipofectamine were added to the cells. After incubation for 3 h, the transfection was stopped by the medium containing 10% fetal bovine serum (200 μL/well).
The HEK293T cells used for activity assay of the report gene were transfected by the method as shown in 2). Activity assay of Wnt reporter gene: the amount of plasmid for transfection was 5 ng/well for TOP-flash and 5 ng/well for GFP plasmid as internal standard, with lacZ added to reach a total amount of 125 ng/well. […] After treating for 6 h, Boehringer Mannheim Luci-ferase Assay Kit was used to lyse cells (200 μL/well). 50 μL from each well was pipetted into a 96-well plate. The indensity of GFP protein in the cell lysate was measured by fluorimeter FL600 (BIO-TEK Inc. Winooski, Vt.), and taken as internal standard for cell transfection efficiency. 10 μL substrate of luciferase was then added to each well, and the activity of luciferase was measured by Micro Lumate Plus (Perkin Elmer Inc. Wellesley, Mass.) luminometer. Finally, GFP indensity was used as internal standard to calibrate the activity of luciferase, i.e. the activity of Wnt reporter gene.
Calculation of IC50 (taking the calculation of IC50 of the Wnt signaling pathway for example): background (the activity as measured in the groups treated with a conditioned medium containing DMSO only) was subtracted from the reporter gene activity as measured in the groups treated by Wnt3a conditioned medium with or without the compound to be tested at different concentrations; and the obtained value was defined as the activity of the reporter gene induced by Wnt or the residual activity of the reporter gene after adding the compound to be tested. The residual activity was normalized by the activity induced by Wnt to get the relative residual activity. Then combine with the concentrations of the compound to be tested to plot a linear graph, and a dose-effect curve was fitted based on 4-parameter logistic fit. IC50 of the Wnt signaling pathway is determined as the concentration at which the relative residual activity is 0.5.

[3] = test system: A-549 (Human lung adenocarcinoma cells); assay: MTT inhibition of tumor cell growth, A-549; conditions: Homo sapiens
Method: as §1, §2, §3, §4

[4] = test system: MCF-7 (human breast cancer cells); assay: MTT inhibition of tumor cell growth, MCF-7; conditions: Homo sapiens
Method: as §1, §2, §3, §4

[5] = test system: SMMC-7721 (human hepatoma cells); assay: MTT inhibition of tumor cell growth, SMMC-7721; conditions: Homo sapiens
Method: as §1, §2, §3, §4

[6] = test system: SW-480 (human colon cancer cells); assay: MTT inhibition of tumor cell growth, SW-480; conditions: Homo sapiens
Method: as §1, §2, §3, §4

[7] = HL-60, 48 h, Table 1, 7-hydroxy derivatives of S-3
[8] = Table 7 (second), derivatives modified on 7-hydroxyl of S-3, HEK293T, Wnt3a conditioned medium, read-out: IC50 (μM), inhibitory activity on the Wnt signaling pathway
[9] = A549, 48 h, Table 1, 7-hydroxy derivatives of S-3
[10] = MCF7, 48 h, Table 1, 7-hydroxy derivatives of S-3
[11] = SMMC-7721, 48 h, Table 1, 7-hydroxy derivatives of S-3
[12] = SW480, 48 h, Table 1, 7-hydroxy derivatives of S-3, read-out: IC50 SW-480
[13] = HL-60, 48 h, Table 2, derivatives having potential Michael reaction acceptor
[14] = A549, 48 h, Table 2, derivatives having potential Michael reaction acceptor
[15] = MCF7, 48 h, Table 2, derivatives having potential Michael reaction acceptor
[16] = SMMC-7721, 48 h, Table 2, derivatives having potential Michael reaction acceptor
[17] = SW480, 48 h, Table 2, derivatives having potential Michael reaction acceptor, read-out: IC50 SW-480
[18] = Table 9, HEK293T, Wnt3a conditioned medium, read-out: IC50(μM), inhibitory activity on the Wnt signaling pathway

Row | Structure (SMILES) | IC50 [1, 7] | IC50 [2, 8] | IC50 [3, 9] | IC50 [4, 10] | IC50 [5, 11] | IC50 [6, 12] | further results
1 | C=C1C(=O)C23CC[C@H]1CC2[C@@]12CCC[C@@](C)(COC1=O)C2C[C@H]3OC(=O)c1cccs1 (stereo partly drawn) [Compound 1o] | – | – | – | – | – | – | IC50 ([1]; HL-60, Table 1, 7-hydroxy derivatives of S-3, 48 h): 0.84 µM; IC50 ([2]; read-out: IC50 (μM), inhibitory activity on the Wnt signaling pathway): 9.15 ± 1.14 µM; IC50 ([3]; A549, Table 1, 7-hydroxy derivatives of S-3, 48 h): 0.49 µM; IC50 ([4]; MCF7, Table 1, 7-hydroxy derivatives of S-3, 48 h): 1.26 µM; IC50 ([5]; SMMC-7721, Table 1, 7-hydroxy derivatives of S-3, 48 h): 0.6 µM; IC50 ([6]; SW480, Table 1, 7-hydroxy derivatives of S-3, 48 h, read-out: IC50 SW-480): 0.56 µM
2 | C=C1C(=O)C23CC[C@H]1CC2[C@@]12CCC[C@@](C)(COC1=O)C2C[C@H]3OC(=O)/C=C/c1ccccc1 (stereo partly drawn) [Compound 1p] | 1.24 µM | 18.6 ± 1.26 µM | 0.79 µM | 3.4 µM | 1.79 µM | 2.16 µM | –
3 | C=C1C(=O)C23CC[C@H]1CC2[C@@]12CCC[C@@](C)(COC1=O)C2C[C@H]3OS(C)(=O)=O (stereo partly drawn) [Compound 1q] | 5.15 µM | 15.1 ± 2.89 µM | 4.17 µM | 3.82 µM | 10.5 µM | 3.43 µM | –
4 | C=C1C(=O)[C@]23CC[C@H]1CC2[C@@]12CCC[C@@](C)(COC1=O)C2CC3=O (stereo partly drawn) [Compound 7] | – | 12.1 ± 1.88 µM | – | – | – | – | IC50 [1, 13]: 4.56 µM; IC50 ([2]; Table 8, HEK293T, Wnt3a conditioned medium, read-out: IC50 (μM), inhibitory activity on the Wnt signaling pathway): 12.1 µM; IC50 [3, 14]: 3.16 µM; IC50 [4, 15]: 4.61 µM; IC50 [5, 16]: 4.72 µM; IC50 [6, 17]: 3.74 µM; IC50 ([6]; SW480, 48 h, Table 6, 7-carbonyl derivatives, read-out: IC50 SW-480, 7-carbonyl derivatives): 2.63 µM
5 | C=C1C(=O)[C@@]23CC[C@@H](CC2[C@@]24CCC[C@@](C)(COC2=O)C14)C(=C)C3=O (stereo partly drawn) [Compound 8] | – | – | – | – | – | – | IC50 ([1]; HL-60, 48 h, Table 5, derivatives having double Michael reaction acceptor): 2.02 µM; IC50 [2, 18]: 4.09 ± 0.07 µM; IC50 ([3]; A549, 48 h, Table 5, derivatives having double Michael reaction acceptor): 0.59 µM; IC50 ([4]; MCF7, 48 h, Table 5, derivatives having double Michael reaction acceptor): 0.96 µM; IC50 ([5]; SMMC-7721, 48 h, Table 5, derivatives having double Michael reaction acceptor): 0.72 µM; IC50 ([6]; SW480, 48 h, Table 5, derivatives having double Michael reaction acceptor, read-out: IC50 SW-480): 0.66 µM; IC50 ([6]; SW480, 48 h, Table 6, double Michael reaction acceptor derivatives, read-out: IC50 SW-480, derivatives having double Michael reaction acceptor): 0.45 µM
6 | C=C1C(=O)[C@]23CC[C@H]1CC2[C@@]12CCC[C@@](C)(COC1=O)C2[C@H](CN1CCOCC1)C3=O (stereo partly drawn) [Compound 9] | – | – | – | – | – | – | IC50 [1, 13]: 4.43 µM; IC50 [2, 18]: 8.56 ± 1.15 µM; IC50 [3, 14]: 2.8 µM; IC50 [4, 15]: 3.55 µM; IC50 [5, 16]: 3.53 µM; IC50 [6, 17]: 7.77 µM
7 | C=C1C(=O)[C@]23CC[C@H]1CC2[C@@]12CCC[C@@](C)(COC1=O)C2C(CN(C)C)C3=O (stereo partly drawn) [Compound 10] | – | – | – | – | – | – | IC50 [1, 13]: 3.41 µM; IC50 [2, 18]: 9.54 ± 1.34 µM; IC50 [3, 14]: 0.83 µM; IC50 [4, 15]: 1.18 µM; IC50 [5, 16]: 0.71 µM; IC50 [6, 17]: 1.03 µM

Second part, led by results:

Row | IC50 [1, 7] | IC50 [2, 8] | IC50 [3, 9] | IC50 [4, 10] | IC50 [5, 11] | IC50 [6, 12] | Structure (SMILES) | further results
8 | 0.58 µM | 8.92 ± 0.98 µM | 0.49 µM | 2.06 µM | 0.57 µM | 1.17 µM | C=C1C(=O)C23CC[C@H]1CC2[C@@]12CCC[C@@](C)(COC1=O)C2C[C@H]3OS(=O)(=O)Cc1ccccc1 (stereo partly drawn) [Compound 1r] | –
9 | 3.53 µM | 12.4 ± 1 µM | 2.69 µM | 4.18 µM | 3.83 µM | 2.89 µM | C=C1C(=O)C23CC[C@H]1CC2[C@@]12CCC[C@@](C)(COC1=O)C2C[C@H]3OS(=O)(=O)c1ccccc1 (stereo partly drawn) [Compound 1s] | –
10 | 3.36 µM | 14.4 ± 2.28 µM | 2.94 µM | 3.19 µM | 3.64 µM | 1.91 µM | C=C1C(=O)[C@]23CC[C@H]1CC2[C@@]12CCC[C@@](C)(COC1=O)C2C[C@H]3OS(=O)(=O)c1ccc(Cl)cc1 (stereo partly drawn) [Compound 1t] | –
11 | 6.63 µM | > 60 µM | 6.69 µM | 9.05 µM | 23.4 µM | 18.4 µM | C=C1C(=O)[C@]23CC[C@H]1CC2[C@@]12CCC[C@@](C)(COC1=O)C2C[C@H]3S(=O)(=O)c1ccccc1[N+](=O)[O-] (stereo partly drawn) [Compound 1u] | –
12 | 9.64 µM | > 60 µM | 16.6 µM | 11.1 µM | 26.9 µM | 14.7 µM | C=C1C(=O)[C@]23CC[C@H]1CC2[C@@]12CCC[C@@](C)(COC1=O)C2C[C@@H]3S(=O)(=O)c1ccccc1[N+](=O)[O-] (stereo partly drawn) [Compound 1v] | –

Reference: US10112918B2, “15-oxospiramilactone derivatives, preparation method and uses thereof” (Kunming Institute of Botany, The Chinese Academy of Sciences, priority 2013, dated 2018)
